# Experimental data taken from PMC2577671, “Evaluation of Dimebon in cellular model of Huntington's disease” (Molecular Neurodegeneration, 2008).
# What was measured:
# Experiment in all cases: biochemical
# Design in all cases: MDS Pharma Lead Profiling screen, binding assays, per cent inhibition, duplicate
# Tachykinin NK1 = biological target: T1, Tachykinin NK1 (Homo sapiens, UniProt P25103)
# T1 construct: gene TACR1
# Description: (§1) The activity of Dimebon against selected set of biochemical targets was performed by MDS Pharma Services . The Dimebon was provided to MDS Pharma as dry powder, dissolved in DMSO and tested in 10 μM concentrations. The standard Lead Profiling + CYP450 screen was performed according to MDS Pharma specifications with additional custom-chosen targets added to the screen as indicated. To further understand potential mechanisms responsible for clinical effects of Dimebon, we evaluated Dimebon against a set of selected biochemical targets. Dimebon evaluation was performed by MDS Pharma Services . The standard Lead Profiling + CYP450 screen was performed with additional custom-selected targets added to the screen. The results of the screen obtained at 10 μM of Dimebon are provided as Additional File 3. […] Low affinity (50–60% inhibition) interactions were also observed for CYP450, 2C19 receptor, voltage-gated L-type Ca^2+ channel, Dopamine D4.2 receptor, and Serotonin 5-HT1 receptor. […] Supplementary file 1750-1326-3-15-S3.pdf: Additional file 3 The results of Dimebon screening against a selected set of biochemical targets. The complete results obtained by MDS Pharma with a selected list of biochemical targets using 10 μM of Dimebon as a probe. The Cat numbers refer to the MDS Pharma Services assay specification. The receptors and species are listed. Dimebon was tested at 10 μM concentratio in duplicate. The % inhibition by Dimebon is shown numerically and graphically for each receptor. Significant targets (defined as % inhibition > 50%) are highlighted in yellow. Click here for file
# Calcium Channel N-Type = biological target: T2, Calcium Channel N-Type (Rattus norvegicus, UniProt Q02294)
# T2 construct: gene Cacna1b
# Description: as §1
# α1D-Adrenergic receptor = biological target: T3, α1D-Adrenergic receptor (Homo sapiens, UniProt P25100)
# T3 construct: gene ADRA1D
# T3 sequence (P25100 whole entry): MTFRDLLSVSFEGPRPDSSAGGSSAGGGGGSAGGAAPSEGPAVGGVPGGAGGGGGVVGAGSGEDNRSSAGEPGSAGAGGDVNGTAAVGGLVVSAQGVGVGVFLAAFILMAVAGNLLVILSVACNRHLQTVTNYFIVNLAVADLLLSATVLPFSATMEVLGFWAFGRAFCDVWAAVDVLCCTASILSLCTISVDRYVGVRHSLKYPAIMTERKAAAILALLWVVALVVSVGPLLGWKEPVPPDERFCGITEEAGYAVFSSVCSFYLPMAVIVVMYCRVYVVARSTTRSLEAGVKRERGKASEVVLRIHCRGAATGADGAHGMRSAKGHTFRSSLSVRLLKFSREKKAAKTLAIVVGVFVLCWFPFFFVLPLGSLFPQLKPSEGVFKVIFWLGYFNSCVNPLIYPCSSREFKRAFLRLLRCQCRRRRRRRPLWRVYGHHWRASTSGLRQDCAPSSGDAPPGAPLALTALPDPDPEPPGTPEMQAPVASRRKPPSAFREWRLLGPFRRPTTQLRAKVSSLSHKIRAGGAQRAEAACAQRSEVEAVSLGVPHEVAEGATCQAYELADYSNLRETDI
# Description: as §1
# α1B-Adrenergic receptor = biological target: T4, α1B-Adrenergic receptor (Rattus norvegicus, UniProt P15823)
# T4 construct: gene Adra1b
# T4 sequence (P15823 whole entry): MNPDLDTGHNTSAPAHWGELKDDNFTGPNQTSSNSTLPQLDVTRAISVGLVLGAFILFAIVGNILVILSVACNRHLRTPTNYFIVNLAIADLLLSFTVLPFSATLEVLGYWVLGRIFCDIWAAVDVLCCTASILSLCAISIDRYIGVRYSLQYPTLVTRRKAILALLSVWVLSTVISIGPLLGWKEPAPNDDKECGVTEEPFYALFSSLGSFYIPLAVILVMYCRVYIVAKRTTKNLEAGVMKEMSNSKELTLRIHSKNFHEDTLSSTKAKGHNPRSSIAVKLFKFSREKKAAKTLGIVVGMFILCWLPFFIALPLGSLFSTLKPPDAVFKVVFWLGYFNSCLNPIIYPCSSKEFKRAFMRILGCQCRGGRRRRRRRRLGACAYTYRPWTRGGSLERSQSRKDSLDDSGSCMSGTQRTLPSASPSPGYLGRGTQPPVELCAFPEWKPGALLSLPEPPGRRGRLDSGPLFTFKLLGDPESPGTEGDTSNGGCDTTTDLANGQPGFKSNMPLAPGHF
# Description: as §1
# Opiate kappa (OP2, KOP) = biological target: T5, Opiate kappa (OP2, KOP) (Homo sapiens, UniProt P41145)
# T5 construct: gene OPRK1
# Description: as §1
# Muscarinic M2 = biological target: T6, Muscarinic M2 (Homo sapiens, UniProt P08172)
# T6 construct: gene CHRM2
# Description: as §1
# Serotonin 5-HT6 receptor = biological target: T7, Serotonin 5-HT6 receptor (Homo sapiens, UniProt P50406)
# T7 construct: gene HTR6
# T7 sequence (P50406 whole entry): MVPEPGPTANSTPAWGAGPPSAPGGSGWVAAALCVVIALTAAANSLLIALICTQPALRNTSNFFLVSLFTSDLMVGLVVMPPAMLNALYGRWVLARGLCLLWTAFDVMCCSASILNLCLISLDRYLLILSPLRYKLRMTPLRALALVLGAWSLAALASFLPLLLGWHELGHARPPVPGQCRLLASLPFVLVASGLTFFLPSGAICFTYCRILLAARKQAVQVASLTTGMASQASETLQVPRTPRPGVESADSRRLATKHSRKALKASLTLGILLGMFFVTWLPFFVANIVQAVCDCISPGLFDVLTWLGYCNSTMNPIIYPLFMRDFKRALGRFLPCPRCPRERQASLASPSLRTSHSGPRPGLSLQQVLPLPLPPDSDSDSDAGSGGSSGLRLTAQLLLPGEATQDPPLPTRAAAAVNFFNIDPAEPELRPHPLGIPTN
# Description: as §1
# [1] = biological target: T8, Epidermal Growth Factor (EGF) (Homo sapiens, UniProt P00533)
# T8 construct: gene EGFR
# Description: as §1
# [2] = biological target: T9, Transporter, Norepinephrine (NET) (Homo sapiens, UniProt P23975)
# T9 construct: gene SLC6A2
# T9 sequence (P23975 whole entry): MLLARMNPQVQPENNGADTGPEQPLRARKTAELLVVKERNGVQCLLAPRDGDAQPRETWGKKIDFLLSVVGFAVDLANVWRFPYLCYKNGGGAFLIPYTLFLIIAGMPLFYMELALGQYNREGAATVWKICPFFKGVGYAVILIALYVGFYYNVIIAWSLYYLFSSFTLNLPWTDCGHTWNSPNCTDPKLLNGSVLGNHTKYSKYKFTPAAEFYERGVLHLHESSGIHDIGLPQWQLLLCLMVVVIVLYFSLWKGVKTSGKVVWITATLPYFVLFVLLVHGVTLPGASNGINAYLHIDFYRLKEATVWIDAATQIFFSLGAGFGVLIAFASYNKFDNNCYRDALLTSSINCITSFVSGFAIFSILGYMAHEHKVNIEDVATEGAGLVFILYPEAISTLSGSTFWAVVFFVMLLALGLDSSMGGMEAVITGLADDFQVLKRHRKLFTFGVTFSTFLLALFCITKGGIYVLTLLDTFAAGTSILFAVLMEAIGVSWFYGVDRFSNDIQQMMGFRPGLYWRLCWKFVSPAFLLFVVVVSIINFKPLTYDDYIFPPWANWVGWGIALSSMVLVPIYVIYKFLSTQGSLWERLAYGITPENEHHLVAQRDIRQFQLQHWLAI
# Description: as §1
# Histamine H3 = biological target: T10, Histamine H3 (Homo sapiens, UniProt Q9Y5N1)
# T10 construct: gene HRH3
# T10 sequence (Q9Y5N1 whole entry): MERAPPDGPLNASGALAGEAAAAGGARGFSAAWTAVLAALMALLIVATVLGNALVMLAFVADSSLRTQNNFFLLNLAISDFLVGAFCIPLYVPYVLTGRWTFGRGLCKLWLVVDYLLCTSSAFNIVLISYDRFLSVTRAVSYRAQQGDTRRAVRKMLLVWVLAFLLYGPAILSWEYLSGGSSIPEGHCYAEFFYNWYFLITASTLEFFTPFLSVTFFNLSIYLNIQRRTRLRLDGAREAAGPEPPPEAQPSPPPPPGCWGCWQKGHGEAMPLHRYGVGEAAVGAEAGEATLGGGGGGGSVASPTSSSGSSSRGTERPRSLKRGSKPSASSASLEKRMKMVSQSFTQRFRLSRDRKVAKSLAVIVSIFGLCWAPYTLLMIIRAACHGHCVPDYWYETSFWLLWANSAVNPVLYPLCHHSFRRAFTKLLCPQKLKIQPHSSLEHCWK
# Description: as §1
# [3] = biological target: T11, Serotonin 5-HT2c receptor (Homo sapiens, UniProt P28335)
# T11 construct: gene HTR2C
# Description: as §1
# Serotonin 5-HT1B = biological target: T12, Serotonin 5-HT1B (Rattus norvegicus, UniProt P28564)
# T12 construct: gene Htr1b
# Description: as §1
# Bradykinin B2 = biological target: T13, Bradykinin B2 (Homo sapiens, UniProt P30411)
# T13 construct: gene BDKRB2
# Description: as §1
# [4] = biological target: T14, Serotonin 5-HT5A receptor (Homo sapiens, UniProt P47898)
# T14 construct: gene HTR5A
# T14 sequence (P47898 whole entry): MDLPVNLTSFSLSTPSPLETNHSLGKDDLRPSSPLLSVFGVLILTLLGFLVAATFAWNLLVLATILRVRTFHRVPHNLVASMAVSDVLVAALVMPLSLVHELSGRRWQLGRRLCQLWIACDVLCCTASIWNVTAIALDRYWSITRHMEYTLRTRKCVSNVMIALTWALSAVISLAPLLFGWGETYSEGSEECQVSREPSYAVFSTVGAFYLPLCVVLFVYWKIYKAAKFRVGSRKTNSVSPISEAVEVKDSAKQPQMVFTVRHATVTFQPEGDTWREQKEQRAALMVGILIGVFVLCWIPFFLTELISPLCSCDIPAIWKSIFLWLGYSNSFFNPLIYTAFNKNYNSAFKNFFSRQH
# Description: as §1
# Serotonin 5-HT3 = biological target: T15, Serotonin 5-HT3 (Homo sapiens, UniProt P46098)
# T15 construct: gene HTR3A
# T15 sequence (P46098 whole entry): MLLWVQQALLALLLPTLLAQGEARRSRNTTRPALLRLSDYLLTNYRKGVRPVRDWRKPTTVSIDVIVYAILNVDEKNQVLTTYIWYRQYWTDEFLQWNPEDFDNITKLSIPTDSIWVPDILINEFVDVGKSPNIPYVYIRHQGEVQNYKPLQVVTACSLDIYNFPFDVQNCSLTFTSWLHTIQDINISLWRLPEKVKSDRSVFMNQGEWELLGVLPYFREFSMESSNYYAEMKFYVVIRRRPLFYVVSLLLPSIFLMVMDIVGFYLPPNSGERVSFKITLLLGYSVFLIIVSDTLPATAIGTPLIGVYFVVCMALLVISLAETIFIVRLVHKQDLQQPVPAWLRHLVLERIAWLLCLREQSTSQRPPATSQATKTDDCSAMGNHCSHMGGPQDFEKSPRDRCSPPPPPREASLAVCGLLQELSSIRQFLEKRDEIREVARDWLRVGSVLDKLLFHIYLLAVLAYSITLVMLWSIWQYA
# Description: as §1
# Serotonin 5-HT1A = biological target: T16, Serotonin 5-HT1A (Homo sapiens, UniProt P08908)
# T16 construct: gene HTR1A
# T16 sequence (P08908 whole entry): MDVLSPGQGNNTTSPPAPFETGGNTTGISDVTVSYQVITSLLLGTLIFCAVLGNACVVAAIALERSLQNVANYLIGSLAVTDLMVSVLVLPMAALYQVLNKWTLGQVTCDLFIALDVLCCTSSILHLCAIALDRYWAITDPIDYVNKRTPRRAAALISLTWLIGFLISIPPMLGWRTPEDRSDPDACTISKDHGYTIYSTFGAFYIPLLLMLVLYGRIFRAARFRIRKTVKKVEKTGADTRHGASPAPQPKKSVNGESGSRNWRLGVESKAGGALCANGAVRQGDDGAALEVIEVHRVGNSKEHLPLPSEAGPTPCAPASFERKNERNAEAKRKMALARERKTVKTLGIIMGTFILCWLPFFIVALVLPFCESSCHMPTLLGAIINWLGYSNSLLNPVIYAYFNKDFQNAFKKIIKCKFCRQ
# Description: as §1
# Adrenergic beta2 = biological target: T17, Adrenergic beta2 (Homo sapiens, UniProt P07550)
# T17 construct: gene ADRB2
# Description: as §1
# Bradykinin B1 = biological target: T18, Bradykinin B1 (Homo sapiens, UniProt P46663)
# T18 construct: gene BDKRB1
# Description: as §1
# Opiate delta (OP1, DOP) = biological target: T19, Opiate delta (OP1, DOP) (Homo sapiens, UniProt P41143)
# T19 construct: gene OPRD1
# Description: as §1
# α1A-Adrenergic receptor = biological target: T20, α1A-Adrenergic receptor (Rattus norvegicus, UniProt P43140)
# T20 construct: gene Adra1a
# T20 sequence (P43140 whole entry): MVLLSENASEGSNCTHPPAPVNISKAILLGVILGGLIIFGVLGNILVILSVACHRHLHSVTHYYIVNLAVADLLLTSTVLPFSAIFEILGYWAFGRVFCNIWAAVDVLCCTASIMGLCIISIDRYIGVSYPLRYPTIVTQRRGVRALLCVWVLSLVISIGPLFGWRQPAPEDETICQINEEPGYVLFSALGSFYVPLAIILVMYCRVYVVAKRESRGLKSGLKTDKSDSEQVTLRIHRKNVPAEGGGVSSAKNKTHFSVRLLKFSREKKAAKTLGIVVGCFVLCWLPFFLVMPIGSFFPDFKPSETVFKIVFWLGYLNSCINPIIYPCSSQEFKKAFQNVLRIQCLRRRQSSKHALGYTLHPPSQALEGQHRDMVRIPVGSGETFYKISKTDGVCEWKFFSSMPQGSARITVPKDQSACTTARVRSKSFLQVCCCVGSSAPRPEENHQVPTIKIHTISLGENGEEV
# Description: as §1
# GABAB1A = biological target: T21, GABAB1A (Homo sapiens, UniProt Q9UBS5)
# T21 construct: gene GABBR1; isoform 1A
# Description: as §1
# T1 sequence (P25103 whole entry): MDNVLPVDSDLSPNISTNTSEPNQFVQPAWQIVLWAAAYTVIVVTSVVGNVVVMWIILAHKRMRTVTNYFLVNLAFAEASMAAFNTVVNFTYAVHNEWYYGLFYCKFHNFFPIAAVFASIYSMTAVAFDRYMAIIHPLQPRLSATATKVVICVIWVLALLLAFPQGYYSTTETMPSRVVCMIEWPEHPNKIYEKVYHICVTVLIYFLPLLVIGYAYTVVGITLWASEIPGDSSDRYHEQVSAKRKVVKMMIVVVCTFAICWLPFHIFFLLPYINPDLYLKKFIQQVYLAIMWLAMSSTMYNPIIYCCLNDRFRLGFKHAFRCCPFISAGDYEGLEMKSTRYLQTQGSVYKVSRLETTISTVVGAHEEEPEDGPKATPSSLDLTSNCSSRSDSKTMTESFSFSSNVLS
smiles,measurement,setting,value
"Cc1ccc2c(c1)c1c(n2CCc2ccc(C)nc2)CCN(C)C1 [Dimebon, 2,3,4,5-Tetrahydro-2,8-dimethyl-5-(2-(6-methyl-3-pyridyl)ethyl)-1H-pyrido(4,3-b)indole]",inhibition at 10 µM,Tachykinin NK1,20%
same,inhibition at 10 µM,Calcium Channel N-Type,0%
same,inhibition at 10 µM,α1D-Adrenergic receptor,95%
same,inhibition at 10 µM,α1B-Adrenergic receptor,100%
same,inhibition at 10 µM,"Opiate kappa (OP2, KOP)",16%
same,inhibition at 10 µM,Muscarinic M2,8%
same,inhibition at 10 µM,Serotonin 5-HT6 receptor,101%
same,inhibition at 10 µM,[1],1%
same,inhibition at 10 µM,[2],20%
same,inhibition at 10 µM,Histamine H3,-4%
same,inhibition at 10 µM,[3],95%
same,inhibition at 10 µM,Serotonin 5-HT1B,48%
same,inhibition at 10 µM,Bradykinin B2,-2%
same,inhibition at 10 µM,[4],99%
same,inhibition at 10 µM,Serotonin 5-HT3,-7%
same,inhibition at 10 µM,Serotonin 5-HT1A,22%
same,inhibition at 10 µM,Adrenergic beta2,14%
same,inhibition at 10 µM,Bradykinin B1,-9%
same,inhibition at 10 µM,"Opiate delta (OP1, DOP)",0%
same,inhibition at 10 µM,α1A-Adrenergic receptor,96%
same,inhibition at 10 µM,GABAB1A,-10%
